Where two headings read alike, the source gives them in different places.

4 molecules from patent US11331299B2, “Medicinal use of serrulatane diterpenes” (The University of Sydney, priority 2016, dated 2022) can be followed below.

Assay [1] deals with SK-NEP-1 kidney. In words: OncoPanel cell proliferation assay (10-day). The class given is cell-based. The conditions noted are these: Homo sapiens; for EC50: read-out: Cell Count EC50; for IC50: read-out: Cell Count IC50.
The target of assay [2] is T1, ATAD2B (h) bromodomain (Homo sapiens, UniProt Q9ULI0).
T1 construct: ATAD2B bromodomain; host or cells: E. coli
T1 sequence (Q9ULI0 951-1066 limits assumed): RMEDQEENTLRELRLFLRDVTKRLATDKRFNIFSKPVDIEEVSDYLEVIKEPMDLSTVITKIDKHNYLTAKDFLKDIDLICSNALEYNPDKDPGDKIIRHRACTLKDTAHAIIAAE
In words: Epigenetic binding assay, Bromodomain. The conditions noted are these: 10 μM; read-out: % Inhibition of Control Specific Binding.

In assay [3] the target is T2, HDAC11 (h) (Homo sapiens, UniProt Q96DB2).
T2 sequence (Q96DB2 1-347): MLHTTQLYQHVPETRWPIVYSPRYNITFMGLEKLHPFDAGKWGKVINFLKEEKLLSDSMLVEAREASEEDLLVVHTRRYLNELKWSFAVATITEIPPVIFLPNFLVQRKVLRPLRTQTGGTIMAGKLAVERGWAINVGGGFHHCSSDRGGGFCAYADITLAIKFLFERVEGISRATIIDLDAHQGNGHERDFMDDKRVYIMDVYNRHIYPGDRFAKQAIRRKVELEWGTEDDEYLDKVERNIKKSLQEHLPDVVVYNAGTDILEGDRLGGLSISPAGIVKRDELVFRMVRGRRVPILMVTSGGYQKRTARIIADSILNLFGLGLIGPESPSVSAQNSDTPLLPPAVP
In words: Epigenetic enzyme assay, Histone deacetylase (HDACs). The class given is biochemical. The conditions noted are these: read-out: % Inhibition of Control Values.

The target in assay [4] is PKBalpha/AKT1(h) (substrate histone H3 full length) (Homo sapiens, UniProt P31749). In words: Epigenetic enzyme assay, Kinases. The format is biochemical. The conditions noted are these: read-out: % Inhibition of Control Values.
Assay [5] concerns the target T3, Angiotensin AT2 (Homo sapiens, UniProt P50052).
T3 construct: expressed in transfected cells; host or cells: CHO-K1 cells
T3 sequence (P50052 1-363): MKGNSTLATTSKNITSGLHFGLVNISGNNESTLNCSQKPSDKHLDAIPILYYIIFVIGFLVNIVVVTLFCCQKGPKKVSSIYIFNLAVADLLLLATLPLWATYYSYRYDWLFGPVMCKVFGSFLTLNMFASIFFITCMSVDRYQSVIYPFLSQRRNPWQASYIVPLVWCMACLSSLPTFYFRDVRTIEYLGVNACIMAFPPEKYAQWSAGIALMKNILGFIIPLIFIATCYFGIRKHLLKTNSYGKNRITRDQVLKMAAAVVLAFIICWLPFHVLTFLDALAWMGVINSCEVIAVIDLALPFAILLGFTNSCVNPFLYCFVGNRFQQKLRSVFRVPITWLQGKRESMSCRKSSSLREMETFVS
In words: Angiotensin AT2 radio ligand binding. The conditions noted are these: assay year 2015, read-out: % Control Response. Here is the method:
(§1) The in vitro pharmacological studies were conducted by Eurofins PanLab (Taiwan) using the parameters shown in Table 13 with respect to appropriate literature references.

The subject of assay [6] is H3K4 me2. In words: Cell-based detection methyl modifications. The conditions noted are these: read-out: % Inhibition of Control Values.
The target of assay [7] is T4, CBX1 (h) chromodomain (Homo sapiens, UniProt P83916).
T4 construct: Recognition and specificity determinants of the human cbx chromodomains; Eurofins CEREP (France), contract laboratory
In words: Epigenetic binding assay, Chromodomain. The conditions noted are these: read-out: % Inhibition of Control Specific Binding.

For assay [8], the target named is T5, Histamine H1 (Homo sapiens, UniProt P35367).
T5 construct: expressed in transfected cells; host or cells: Chem-1 cells
In words: Histamine H1 radio ligand binding. Here is the method:
as §1

The target of assay [9] is T6, SP140 (h) PHD domain (Homo sapiens, UniProt Q13342).
T6 construct: Eurofins CEREP (France), contract laboratory
In words: Epigenetic binding assay, PHD domain. The conditions noted are these: for inhibition at 10 µM: read-out: % Inhibition of Control Specific Binding.

Assay [10] has as its target T7, Lipoxygenase 12-LO (Homo sapiens, UniProt P18054).
T7 construct: Human platelets; from tissue; host or cells: human platelets
T7 sequence (P18054 1-663): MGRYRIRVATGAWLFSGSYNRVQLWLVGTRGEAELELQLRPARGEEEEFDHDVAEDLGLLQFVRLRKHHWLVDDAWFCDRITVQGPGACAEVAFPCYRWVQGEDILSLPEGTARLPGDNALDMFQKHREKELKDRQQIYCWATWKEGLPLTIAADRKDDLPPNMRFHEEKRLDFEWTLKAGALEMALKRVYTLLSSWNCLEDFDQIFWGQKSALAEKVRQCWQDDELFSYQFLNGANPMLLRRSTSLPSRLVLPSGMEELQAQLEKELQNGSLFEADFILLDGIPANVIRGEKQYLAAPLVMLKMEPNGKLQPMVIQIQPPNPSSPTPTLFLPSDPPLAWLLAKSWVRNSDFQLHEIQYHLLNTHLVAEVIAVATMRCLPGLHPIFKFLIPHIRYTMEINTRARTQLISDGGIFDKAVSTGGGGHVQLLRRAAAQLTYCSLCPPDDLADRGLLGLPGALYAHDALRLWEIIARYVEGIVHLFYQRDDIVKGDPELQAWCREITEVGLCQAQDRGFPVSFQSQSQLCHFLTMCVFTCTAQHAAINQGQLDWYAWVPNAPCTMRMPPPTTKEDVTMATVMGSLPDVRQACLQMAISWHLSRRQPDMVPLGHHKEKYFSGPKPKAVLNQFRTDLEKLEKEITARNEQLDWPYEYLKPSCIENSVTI
In words: Lipoxygenase 12-LO. The class given is biochemical. The conditions noted are these: assay year 2015, read-out: % Control Response. Here is the method:
as §1

The target of assay [11] is T8, BRD3(1) (h) bromodomain (Homo sapiens, UniProt Q15059).
T8 construct: Bromodomain
In words: Epigenetic binding assay, Bromodomain. The conditions noted are these: read-out: % Inhibition of Control Specific Binding.

Assay [12] has as its target pCAF(h) (Homo sapiens, UniProt Q92831). In words: Epigenetic enzyme assay, Histone acetyltransferases (HATs). The conditions noted are these: read-out: % Inhibition of Control Values. The format is biochemical.
Assay [13] has as its target T9, Catechol O-methyltransferase (h) (Homo sapiens, UniProt P21964).
T9 sequence (P21964 1-271): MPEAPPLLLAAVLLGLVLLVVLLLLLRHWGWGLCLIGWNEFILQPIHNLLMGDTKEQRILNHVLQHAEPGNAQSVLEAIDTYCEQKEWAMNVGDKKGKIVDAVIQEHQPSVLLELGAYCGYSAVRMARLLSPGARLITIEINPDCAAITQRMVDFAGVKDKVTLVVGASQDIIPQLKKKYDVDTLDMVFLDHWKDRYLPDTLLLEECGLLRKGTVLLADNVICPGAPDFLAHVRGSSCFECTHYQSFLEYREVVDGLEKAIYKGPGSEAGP
In words: Epigenetic enzyme assay, Small molecule methyltransferases. The format is biochemical. The conditions noted are these: read-out: % Inhibition of Control Values.

The target of assay [14] is USP 14 (h) (Homo sapiens, UniProt P54578). In words: Epigenetic enzyme assay, Ubiquitin modifying enzymes. The class given is biochemical. The conditions noted are these: 10 μM; read-out: % Inhibition of Control Values.
Setting [15] is: SK-NEP-1, Kidney, read-out: Cell Count GI50.
The mark [16] stands for this setting: assay year 2015, read-out: % Control Response.
[17] abbreviates: assay year 2014, read-out: % Control Response.

T5 sequence (P35367 whole entry): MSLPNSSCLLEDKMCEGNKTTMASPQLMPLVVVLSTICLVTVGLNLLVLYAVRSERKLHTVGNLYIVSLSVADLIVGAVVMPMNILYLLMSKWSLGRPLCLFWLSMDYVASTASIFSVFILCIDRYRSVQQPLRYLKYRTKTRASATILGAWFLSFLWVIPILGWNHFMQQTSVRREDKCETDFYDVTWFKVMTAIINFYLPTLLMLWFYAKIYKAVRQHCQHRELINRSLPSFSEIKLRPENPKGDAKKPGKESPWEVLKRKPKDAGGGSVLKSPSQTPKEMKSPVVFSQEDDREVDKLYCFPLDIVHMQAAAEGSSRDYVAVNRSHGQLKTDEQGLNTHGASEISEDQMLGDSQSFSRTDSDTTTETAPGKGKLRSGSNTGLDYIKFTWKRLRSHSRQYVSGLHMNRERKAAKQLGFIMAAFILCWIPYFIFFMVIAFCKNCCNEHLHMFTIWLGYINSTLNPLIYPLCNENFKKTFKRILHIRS
Chain of USP 14 (h) (P54578 whole entry): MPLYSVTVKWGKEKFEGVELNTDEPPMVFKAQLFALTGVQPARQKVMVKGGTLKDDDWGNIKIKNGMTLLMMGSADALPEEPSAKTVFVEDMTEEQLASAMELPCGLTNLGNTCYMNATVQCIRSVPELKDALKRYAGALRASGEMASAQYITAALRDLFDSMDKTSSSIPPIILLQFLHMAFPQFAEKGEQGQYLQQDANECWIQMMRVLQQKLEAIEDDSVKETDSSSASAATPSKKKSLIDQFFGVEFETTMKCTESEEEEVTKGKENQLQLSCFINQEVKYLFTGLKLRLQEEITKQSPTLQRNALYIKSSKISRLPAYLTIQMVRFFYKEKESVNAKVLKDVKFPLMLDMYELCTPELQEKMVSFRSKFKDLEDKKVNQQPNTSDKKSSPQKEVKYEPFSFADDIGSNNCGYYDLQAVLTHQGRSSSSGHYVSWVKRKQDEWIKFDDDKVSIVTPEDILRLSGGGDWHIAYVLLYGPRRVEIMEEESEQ
T6 sequence (Q13342 690-736 limits assumed): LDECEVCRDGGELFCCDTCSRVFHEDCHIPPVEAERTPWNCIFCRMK
T8 sequence (Q15059 34-140 limits assumed): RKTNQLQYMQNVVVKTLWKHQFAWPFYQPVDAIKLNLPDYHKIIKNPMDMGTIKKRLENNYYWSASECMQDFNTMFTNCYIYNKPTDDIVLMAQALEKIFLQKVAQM
T4 sequence (P83916 21-79 limits assumed): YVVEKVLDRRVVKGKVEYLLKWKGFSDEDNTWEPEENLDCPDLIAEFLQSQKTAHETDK
Chain of pCAF(h) (Q92831 whole entry): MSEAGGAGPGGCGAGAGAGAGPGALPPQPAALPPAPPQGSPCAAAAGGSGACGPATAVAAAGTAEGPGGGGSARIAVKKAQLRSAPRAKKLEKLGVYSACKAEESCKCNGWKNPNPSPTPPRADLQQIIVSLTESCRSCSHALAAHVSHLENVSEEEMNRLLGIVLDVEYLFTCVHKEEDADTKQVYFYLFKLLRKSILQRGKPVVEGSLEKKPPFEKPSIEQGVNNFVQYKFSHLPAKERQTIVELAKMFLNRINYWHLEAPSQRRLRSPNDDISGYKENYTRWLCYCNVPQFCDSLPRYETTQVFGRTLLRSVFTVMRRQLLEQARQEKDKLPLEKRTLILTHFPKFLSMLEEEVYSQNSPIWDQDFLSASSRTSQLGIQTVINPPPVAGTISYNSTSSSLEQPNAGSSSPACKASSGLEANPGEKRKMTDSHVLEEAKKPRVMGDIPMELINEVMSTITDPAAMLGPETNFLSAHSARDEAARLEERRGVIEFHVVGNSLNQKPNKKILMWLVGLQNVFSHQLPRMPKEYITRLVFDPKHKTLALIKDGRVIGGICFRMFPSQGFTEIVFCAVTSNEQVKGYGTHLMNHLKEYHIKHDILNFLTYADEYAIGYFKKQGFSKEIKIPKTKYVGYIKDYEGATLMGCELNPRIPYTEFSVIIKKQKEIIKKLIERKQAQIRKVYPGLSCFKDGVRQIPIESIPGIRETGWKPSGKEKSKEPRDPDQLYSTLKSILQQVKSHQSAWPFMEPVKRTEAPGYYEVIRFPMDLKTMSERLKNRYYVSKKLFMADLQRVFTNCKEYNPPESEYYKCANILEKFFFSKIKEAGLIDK
Chain of PKBalpha/AKT1(h) (substrate histone H3 full length) (P31749 whole entry): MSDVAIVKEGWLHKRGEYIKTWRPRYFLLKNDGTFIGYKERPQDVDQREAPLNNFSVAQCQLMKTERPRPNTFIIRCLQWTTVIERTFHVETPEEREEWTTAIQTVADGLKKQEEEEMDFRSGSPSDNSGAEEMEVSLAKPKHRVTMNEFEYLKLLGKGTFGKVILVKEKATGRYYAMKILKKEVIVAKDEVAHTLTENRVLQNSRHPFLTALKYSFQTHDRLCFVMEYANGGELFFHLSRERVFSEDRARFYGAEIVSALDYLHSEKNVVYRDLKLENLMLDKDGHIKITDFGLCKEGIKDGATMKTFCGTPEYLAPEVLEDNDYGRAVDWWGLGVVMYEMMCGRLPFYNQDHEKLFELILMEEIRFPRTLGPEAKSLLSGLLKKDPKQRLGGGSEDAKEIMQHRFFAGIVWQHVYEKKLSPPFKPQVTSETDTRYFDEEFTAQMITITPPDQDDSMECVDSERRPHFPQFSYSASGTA

Consider `CC(C)=CCC[C@H](C)[C@@H]1CC[C@@H](C)c2c1cc(C)c(O)c2O` [Compound 4, 7,8-dihydroxyserrulat-14-ene], for which, in [1] (SK-NEP-1, Kidney), the EC50 (in general, the concentration at which the effect is half-maximal) came out at 9.62 µM and the IC50 – broadly, the concentration needed to halve the response being measured – is 9.63 µM. In [1] (setting [15]), the GI50 – broadly, the concentration that inhibits growth by half – turned out to be 9.62 µM.

Consider `CC(C)=CCC[C@@H]1COc2c(C)cc(O)c3c2[C@H]1CC[C@H]3C` [Compound 3, 5,18-epoxy-8-hydroxyserrulat-14-ene], for which the inhibition (as a rule, the drop in the measured response relative to a control, in per cent) at 10 µM in [2] was 28%; in assay [3], -130%; in [4] it was -15%; in assay [6], -9%; in assay [7], -1%; in [9] (10 μM) it was 2%. The inhibition at 10 µM in [11] was 13%; in [12], -20%; in assay [13], 0%; in [14], -24%. The values for the remaining activity at 10 µM in [5], in [8] (setting [16]) and in assay [10] were 9%, 50% and 29%, respectively.

With `CC(C)=CCC[C@@H]1C(O)Oc2c(C)cc(O)c3c2[C@H]1CC[C@H]3C` (stereo partly drawn) [Compound 2, 5,18-epoxyserrulat-14-en-8,18-diol], the GI50 in [1] (SK-NEP-1, read-out: GI50) was found to be 0.0606 µM; in [1] (setting [15]), 0.06 µM. Further, the EC50 in [1] (SK-NEP-1, Kidney) was 0.06 µM. The IC50 in assay [1] (SK-NEP-1, Kidney) is 0.06 µM. In addition, the inhibition at 10 µM in assay [2] was 25%; in assay [3], -47%; in assay [4] it was -19%; in [6], -1%; in [7] it was 0%; in assay [9] (10 μM), 0%. Besides, the inhibition at 10 µM in [11] is 17%; in assay [12], -26%; in assay [13], 1%; in assay [14] it was 0%. Moreover, the remaining activity at 10 µM in [5] came to 18%; in assay [8] (setting [17]) it was 66%; in [8] (setting [16]), 60%; in [10] it was 40%.

In the case of `CC(C)=CCC[C@H](CO)[C@@H]1CC[C@@H](C)c2c1cc(C)c(O)c2O` [Compound 1, 7,8,18-trihydroxyserrulat-14-ene], the GI50 in assay [1] (SK-NEP-1, read-out: GI50) came to 0.00618 µM; in assay [1] (setting [15]) it was 0.006 µM. For the same molecule, in [1] (SK-NEP-1, Kidney), the EC50 was 0.01 µM. Also, the IC50 in assay [1] (SK-NEP-1, Kidney) is 0.01 µM; in [9] (Table 9, inhibition/concentration-response curve) it was 4.6 µM. The inhibition at 10 µM was 52% in [2]; 27% in assay [3]; -1% in [4]; -5% in assay [6]; 15% in assay [7]; 74% in assay [9] (10 μM). Also, the inhibition at 10 µM in assay [11] is 47%; in [12] it was -25%; in assay [13] it was 6%; in [14], 1%. Besides, the remaining activity at 10 µM in assay [5] worked out at 29%; in assay [8] (setting [17]), 85%; in assay [8] (setting [16]), 97%; in [10], 60%. For the same molecule, the “% Inhibition of Control Specific Binding” value in assay [9] (10 μM) is on record as “good inhibitory activity”.
